Assay results as given in patent publication US8008312B2, “CXCR4 antagonists for the treatment of HIV infection” (Emory University, priority 2005, dated 2011).
Like-named read-outs stand apart in the source and are kept apart here.

Assays:
HXB2 = experiment: Phenoscreen viral entry inhibition assay, HXB2; assay type: cell-based, HIV
Description: (§1) A selected set of compounds were tested for their ability to inhibit the cellular entry of T-tropic HIV. The assay for this inhibition has been carried out on a contractural basis at Monogram Biosciences, Inc. using their well established Phenoscreen™ assay. Briefly, HIV strains of interest are tagged with a luciferase indicator gene to create an appropriate test vector. The test vector is amplified through transfection and the resulting virus is incubated in the presence of target host cells where intracellular florescence activity then becomes a measure of infection. Amplified virus is exposed to target host cells in the presence of a range of test drug concentrations to determine IC50 measurements of entry inhibition. A modification of this test has been further reapplied as a novel drug assay that has been used in partnership with a number of pharmaceutical companies to test the effectiveness of novel entry inhibitors that target specific chemokines. It can used to detect activity against T-tropic, M-tropic, and dual-tropic viruses and Monogram Biosciences has a large bank of over 10,000 different virus strains to ultimately asses the range of applicability of our CXCR4 antagonists. Certain compounds have been tested to establish efficacy in a number of viral strains.

NL4-3 = experiment: Phenoscreen viral entry inhibition assay, NL4-3; assay type: cell-based, HIV
Description: as §1

Vrs-1 = experiment: Phenoscreen viral entry inhibition assay, Vrs-1; assay type: cell-based, HIV
Description: as §1

Vrs-2 = experiment: Phenoscreen viral entry inhibition assay, Vrs-2; assay type: cell-based, HIV; conditions: Human immunodeficiency virus 1, read-out: Viral Entry Inhibition Vrs-2
Description: as §1

Vrs-3 = experiment: Phenoscreen viral entry inhibition assay, Vrs-3; assay type: cell-based, HIV
Description: as §1

Dual = experiment: Phenoscreen viral entry inhibition assay, Dual; assay type: cell-based, HIV; conditions: Human immunodeficiency virus 1, read-out: Viral Entry Inhibition Dual
Description: as §1

SHIV = experiment: Phenoscreen viral entry inhibition assay, SHIV; assay type: cell-based
Description: as §1

CXCR4 [1] = target: T1, CXCR4 (Homo sapiens, UniProt P61073); experiment: SDF-1 stimulated phosphorylation of Akt in MDA-MB-231 cells; assay type: cell-based; conditions: 100 ng/ml SDF-1, 30 minutes; FIG. 2
Description: FIG. 2 is an image of a western blot showing phosphorylation of Akt. Incubating MDA-MB-231 cells with 100 ng/ml of SDF-1 for 30 min stimulated phosphorylation of Akt. This activation was blocked with TN14003 or AMD3100 in a dose-dependent manner.
CXCR4/SDF-1 interaction activates PI3K/Akt and Ras/Raf/MEK/Erk pathways in a Gas protein (PTX-sensitive)-dependent manner. Experiments were conducted to determine the effect of blocking CXCR4/SDF-1 interaction by either TN14003 or AMD3100 at different concentrations (0, 0.01, 0.1, 1, 10, 100, 1000 nM) on phosphorylations of Akt and Erk1/2 signaling. Incubating cells with 100 ng/ml of SDF-1 for 30 minutes activated Akt. […] However, the increase in Erk1/2 phosphorylation by SDF-1 was not significant as the increase in Akt phosphorylation.

CXCR4 [2] = target: T1, CXCR4; experiment: SDF-1 stimulated Erk1/2 phosphorylation; assay type: cell-based; conditions: SDF-1 stimulation; data not shown
Excerpt: CXCR4/SDF-1 interaction activates PI3K/Akt and Ras/Raf/MEK/Erk pathways in a Gas protein (PTX-sensitive)-dependent manner.

CXCR4 [3] = target: T1, CXCR4; experiment: CXCR4 protein levels after treating cells; assay type: cell-based
CXCR4 [4] = target: T1, CXCR4; experiment: Competition assay using biotin-labeled TN14003 on tumor cells; assay type: binding; conditions: FIG. 5, cells pre-incubated with various concentrations; read-out: IC50 (biotin-labeled TN14003 detection of CXCR4 after pre-incubation)
Description: Biotin-labeled TN14003 was used to detect CXCR4 protein from the cells pre-incubated with various concentrations of WZZL811S.
Using biotin-labeled TN14003 along with streptavidin-conjugated rhodamine allowed a determination of the binding efficiency of these chemicals to the SDF-1 binding site of CXCR4 on tumor cells and compared it to AMD3100-SDF-1 interactions (FIG. 4). […] Cells were pre-incubated with different concentrations of AMD3100. […] Therefore, one of these compounds, WZZL811S, was selected to study its therapeutic potential based on potency and low toxicity to cells (FIG. 6).

MDA-MB-231 cells = experiment: Cell viability of MDA-MB-231 cells; assay type: cell-based; conditions: even at 100 μM (the highest concentration tested)
CXCR4 [5] = target: T1, CXCR4; experiment: Competition screening using the native CXCR4 ligand SDF-1; assay type: binding; conditions: competition with SDF-1
Half-life in mice = conditions: mouse, in vivo, read-out: t1/2 (min) in mice
MT-4 cells = conditions: cited from earlier work
[6] = Human immunodeficiency virus 1, HXB2, read-out: Viral Entry Inhibition HXB2
[7] = Human immunodeficiency virus 1, NL43, read-out: Viral Entry Inhibition NL4-3
[8] = Human immunodeficiency virus 1, read-out: Viral Entry Inhibition Vrs-1
[9] = Human immunodeficiency virus 1, read-out: Viral Entry Inhibition Vrs-3

T1 sequence (P61073 whole entry): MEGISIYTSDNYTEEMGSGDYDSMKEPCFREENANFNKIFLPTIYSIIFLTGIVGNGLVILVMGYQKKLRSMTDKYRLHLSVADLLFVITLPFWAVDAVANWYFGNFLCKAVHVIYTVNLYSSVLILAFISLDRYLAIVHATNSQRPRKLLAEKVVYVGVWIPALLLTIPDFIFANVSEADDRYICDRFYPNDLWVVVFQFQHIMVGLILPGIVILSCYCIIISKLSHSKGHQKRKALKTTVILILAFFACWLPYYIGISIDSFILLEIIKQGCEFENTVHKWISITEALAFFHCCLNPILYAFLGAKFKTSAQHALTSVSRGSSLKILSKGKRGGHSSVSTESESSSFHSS

Molecule | IC50 (HXB2; [6]) | IC50 (NL4-3; [7]) | IC50 (Vrs-1; [8]) | IC50 (Vrs-2) | IC50 (Vrs-3; [9]) | IC50 (Dual) | IC50 (SHIV) | IC50 (CXCR4 [5]) | also measured
C1=CC(CN2CCCNCCNCCCNCC2)CC=C1CN1CCCNCCNCCCNCC1 (stereo not drawn) [AMD3100, reference compound] | 0.013 µM | 0.008 µM | 0.013 µM | 0.015 µM | 0.043 µM | 0.03 µM | 0.013 µM |  | concentration blocking Akt activation (CXCR4 [1]): a few nano molar; concentration attenuating Erk1/2 phosphorylation (CXCR4 [2]): 100 nM; effect on CXCR4 protein levels (CXCR4 [3]): did not affect CXCR4 protein levels
c1cnc(NCc2ccc(CNc3ncccn3)cc2)nc1 [WZ-40-MS] | > 15 µM | > 15 µM | > 15 µM | ~10 µM | > 15 µM | > 15 µM | ~12 µM |  | 
OCc1ccc(CNc2ncccn2)cc1 [WZ-41] | > 15 µM | > 15 µM | > 15 µM | ~13 µM | > 15 µM | > 15 µM | ~15 µM |  | 
c1ccc(NCc2cccc(CNc3ccccn3)c2)nc1 [WZ-48-S] | > 15 µM | > 15 µM | > 15 µM | ~11 µM | > 15 µM | > 15 µM | ~11 µM |  | 
Fc1ccccc1NCc1ccc(CNc2ccccc2F)cc1 [WZ-51] | > 15 µM | ~12 µM | ~10 µM | ~10 µM | ~10 µM | ~12 µM | 1.42 µM |  | 
c1ccc(NCc2ccc(CNc3ncccn3)cc2)cc1 [WZ-67] | > 15 µM | ~11 µM | > 15 µM | ~11 µM | ~12 µM | > 15 µM | ~10 µM |  | 
COc1ccnc(NCc2ccc(CNc3nccc(OC)n3)cc2)n1 [WZ-72-S] | > 15 µM | ~15 µM | > 15 µM | ~12 µM | > 15 µM | > 15 µM | 4.44 µM |  | 
COc1cccc(NCc2ccc(CNc3cccc(OC)c3)cc2)c1 [WZ-77] | > 15 µM | ~14 µM | > 15 µM | ~11 µM | > 15 µM | > 15 µM | 8.96 µM |  | 
c1ccc(NCc2cccc(CNc3ccccc3)c2)cc1 [WZ-814-S] | ~15 µM | ~11 µM | ~11 µM | ~11 µM | ~11 µM | > 15 µM | > 15 µM |  | 
c1ccc(CNCc2ccc(CNCc3ccccc3)cc2)cc1 [WZ-8224] | 8.08 µM | 6.37 µM | 4.78 µM | 4.31 µM | 5.72 µM | 6.25 µM | 1.7 µM |  | 
CC(Nc1ccccc1)c1ccc(C(C)Nc2ccccc2)cc1 (stereo not drawn) [WZ-8225] | ~11 µM | ~10 µM | ~11 µM | ~10 µM | ~10 µM | > 15 µM | ~10 µM |  | 
Cc1cc(CNc2ccccc2)c(C)cc1CNc1ccccc1 [WZ-9103] | ~13 µM | ~11 µM | > 15 µM | ~15 µM | ~15 µM | > 15 µM | 9.5 µM |  | 
c1ccc(NCc2ccc(CNc3ccccc3)cc2)cc1 [WZ-81810] | > 15 µM | > 15 µM | > 15 µM | ~10 µM | > 15 µM | > 15 µM | ~12 µM |  | 
c1ccc(NCc2ccc(CNc3ccccn3)cc2)nc1 [WZZL811S] | > 15 µM | > 15 µM | > 15 µM | ~12 µM | > 15 µM | > 15 µM | > 15 µM |  | IC50 (CXCR4 [4]): < 1 nM; cell viability of MDA-MB-231 cells (MDA-MB-231 cells): did not decrease cell viability
c1ccc(NCc2ccc(CNc3ccccn3)cc2)nc1 [drawing 204] |  |  |  |  |  |  |  | < 10 nM | 
c1cnc(NCc2ccc(CNc3ncccn3)cc2)nc1 [drawing 205] |  |  |  |  |  |  |  | < 10 nM | half-life (Half-life in mice): 45 min
OCc1ccc(CNc2ncccn2)cc1 [drawing 206] |  |  |  |  |  |  |  | < 10 nM | 
c1ccc(NCc2ccc(CNc3ccccc3)cc2)cc1 [drawing 208] |  |  |  |  |  |  |  | < 10 nM | half-life (Half-life in mice): 11 min
c1ccc(NCc2cccc(CNc3ccccc3)c2)cc1 [drawing 209] |  |  |  |  |  |  |  | < 10 nM | half-life (Half-life in mice): < 5 min
c1ccc(CNCc2ccc(CNCc3ccccc3)cc2)cc1 [drawing 210] |  |  |  |  |  |  |  | < 100 nM | 
CC(Nc1ccccc1)c1ccc(C(C)Nc2ccccc2)cc1 (stereo not drawn) [drawing 211] |  |  |  |  |  |  |  | < 100 nM | half-life (Half-life in mice): 13.7 min
Cc1cc(CNc2ccccc2)c(C)cc1CNc1ccccc1 [drawing 212] |  |  |  |  |  |  |  | > 100 nM | 
Fc1ccccc1NCc1ccc(CNc2ccccc2F)cc1 [drawing 213] |  |  |  |  |  |  |  | < 10 nM | 
c1ccc(NCc2ccc(CNc3ncccn3)cc2)cc1 [drawing 214] |  |  |  |  |  |  |  |  | half-life (Half-life in mice): 14 min
COc1ccnc(NCc2ccc(CNc3nccc(OC)n3)cc2)n1 [drawing 215] |  |  |  |  |  |  |  | 10 nM | 
COc1cccc(NCc2ccc(CNc3cccc(OC)c3)cc2)c1 [drawing 216] |  |  |  |  |  |  |  | 1 nM | half-life (Half-life in mice): 14.3 min
TN14003 [reference compound] |  |  |  |  |  |  |  |  | IC50 (HXB2; HXB2 strain, read-out: Viral Entry Inhibition HXB2): 0.01 µM; IC50 (NL4-3; NL4-3 strain, read-out: Viral Entry Inhibition NL4-3): 0.005 µM; IC50 (Vrs-1; Vrs-1 strain, read-out: Viral Entry Inhibition Vrs-1): 0.01 µM; IC50 (Vrs-3; Vrs-3 strain, read-out: Viral Entry Inhibition Vrs-3): 0.025 µM; IC50 (SHIV; SHIV): 0.007 µM; concentration blocking Akt activation (CXCR4 [1]): sub-nano molar concentration; concentration attenuating Erk1/2 phosphorylation (CXCR4 [2]): sub-nano molar concentration; effect on CXCR4 protein levels (CXCR4 [3]): did not affect CXCR4 protein levels; concentration leading to 50% toxicity (MT-4 cells): 410 µM
